Experimental data as given in patent US20060281763A1, “Carboxamide inhibitors of TGFbeta” (priority 2005, published 2006).

These compounds were tested against T1, TGFβ R1 (Homo sapiens, UniProt P36897) (assay: TGFβ R1 autophosphorylation protocol (33P-ATP, phosphocellulose filter plate)). Conditions: 10 uM ATP, 170 nM TGFβ R1, 20 minutes at room temperature, read-out: IC50 for Kinase Inhibition.
T1 sequence (P36897 34-503): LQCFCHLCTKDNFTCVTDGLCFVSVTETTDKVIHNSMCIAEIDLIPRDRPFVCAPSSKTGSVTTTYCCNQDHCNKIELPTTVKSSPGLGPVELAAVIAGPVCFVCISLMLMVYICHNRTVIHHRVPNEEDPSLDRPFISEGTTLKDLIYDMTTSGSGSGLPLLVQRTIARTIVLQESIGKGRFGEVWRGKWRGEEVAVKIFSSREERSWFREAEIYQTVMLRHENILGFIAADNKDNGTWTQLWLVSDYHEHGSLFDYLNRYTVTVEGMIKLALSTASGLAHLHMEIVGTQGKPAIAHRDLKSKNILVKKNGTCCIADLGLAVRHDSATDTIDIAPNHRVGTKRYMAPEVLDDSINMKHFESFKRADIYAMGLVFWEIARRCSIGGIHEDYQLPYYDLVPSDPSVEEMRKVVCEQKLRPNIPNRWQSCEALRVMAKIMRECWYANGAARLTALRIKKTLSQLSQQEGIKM
Format: biochemical
Procedure, shortened: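 Radiometric autophosphorylation: 170 nM enzyme with compound (≤1% DMSO), 10 uM ATP plus γ-33P-ATP, […] in 20 mM MOPS pH 7, 20 min at room temperature. Reaction stopped on phosphocellulose filter, washed with H3PO4 and ethanol, counted by scintillation.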

Compared with `COc1cnc(-c2cc(Cl)ccc2F)nc1Nc1ccncc1C(=O)NCCCN1CCCC1=O` [Compound 11, 4-{2-(5-Chloro-2-fluoro-phenyl)-5-methoxy-pyrimidin-4-ylamino]-N-[3-(2-oxo-pyrrolidin-1-yl)-propyl]-nicotinamide], `COc1cnc(-c2cc(Cl)ccc2F)nc1Nc1ccncc1C(=O)NCCCN1CCC[C@H]1C(N)=O` [Compound 123, N-[3-(2-Carbamoyl-pyrrolidin-1-yl)-propyl]-4-[2-(5-chloro-2-fluoro-phenyl)-5-methoxy-pyrimidin-4-ylamino]-nicotinamide] is 5.2-fold lower in IC50: 120 nM for the first, 23 nM for the second.

Compared with `CC(C)c1cnc(-c2cc(Cl)ccc2F)nc1Nc1ccncc1C(=O)NC1(CO)CC1` [Compound 150, 4-[2-(5-Chloro-2-fluoro-phenyl)-5-isopropyl-pyrimidin-4-ylamino]-N-(1-hydroxymethyl-cyclopropyl)-nicotinamide], `CC(C)c1cnc(-c2cc(Cl)ccc2F)nc1Nc1ccncc1C(=O)N[C@H]1CCC[C@@H]1O` [Compound 83, 4-[2-(5-Chloro-2-fluoro-phenyl)-5-isopropyl-pyrimidin-4-ylamino)-N-(2-hydroxy-cyclopentyl)-nicotinamide] is 23-fold higher in IC50: 10 nM for the first, 230 nM for the second. The first is the more potent here.

Compared with `COc1cnc(-c2cc(Cl)ccc2F)nc1Nc1ccncc1C(=O)N[C@H]1CN[C@@H](C(=O)N(C)C)C1` [Compound 107, 4-[2-(5-Chloro-2-fluoro-phenyl)-5-methoxy-pyrimidin-4-ylamino]-N-(5-dimethylcarbamoyl-pyrrolidin-3-yl)-nicotinamide], `COc1cnc(-c2cc(Cl)ccc2F)nc1Nc1ccncc1C(=O)N[C@@H]1CCNC1` [Compound 138, 4-[2-(5-Chloro-2-fluoro-phenyl)-5-methoxy-pyrimidin-4-ylamino]-N-pyrrolidin-3-yl-nicotinamide] is 3.8-fold lower in IC50: 90 nM for the first, 24 nM for the second. The second is the more potent here.

First: COc1cnc(-c2cc(Cl)ccc2F)nc1Nc1ccncc1C(=O)NCCCNCCNC(C)C [Compound 14]
Second: CN/C(=N\C#N)NCCCNC(=O)c1cnccc1Nc1nc(-c2cc(Cl)ccc2F)ncc1OC [Compound 41]
The IC50 of the first is 2.4-fold higher: 120 nM for the first, 50 nM for the second.

`COc1cnc(-c2cc(Cl)ccc2F)nc1Nc1ccncc1C(=O)NC[C@H](O)[C@@H](O)CN` [Compound 55, N-(4-Amino-2,3-dihydroxy-butyl)-4-[2-(5-chloro-2-fluoro-phenyl)-5-methoxy-pyrimidin-4-ylamino]-nicotinamide] and `COc1cnc(-c2cc(Cl)ccc2F)nc1Nc1ccncc1C(=O)NCC(O)CN` (centres unmarked) [Compound 63, N-(3-Amino-2-hydroxy-propyl)-4-[2-(5-chloro-2-fluoro-phenyl)-5-methoxy-pyrimidin-4-ylamino]-nicotinamide] are within 1.5-fold of each other in IC50: 130 nM for the first, 100 nM for the second.

First: COc1cnc(-c2cc(Cl)ccc2F)nc1Nc1ccncc1C(=O)NCC1(O)CCCCC1 [Compound 61, 4-[2-(5-Chloro-2-fluoro-phenyl)-5-methoxy-pyrimidin-4-ylamino]-N-(1-hydroxy-cyclohexylmethyl)-nicotinamide]
Second: COc1cnc(-c2cc(Cl)ccc2F)nc1Nc1ccncc1C(=O)NCC(F)(F)F [Compound 37, 4-[2-(5-Chloro-2-fluoro-phenyl)-5-methoxy-pyrimidin-4-ylamino]-N-(2,2,2-trifluoro-ethyl)-nicotinamide]
The IC50 of the first is 74-fold higher: 11800 nM for the first, 160 nM for the second. The second is the more potent here.

Going from `COc1ccc(NC(=O)NCCNC(=O)c2cnccc2Nc2nc(-c3cc(Cl)ccc3F)ncc2OC)cc1` [Compound 79, 4-[2-(5-Chloro-2-fluoro-phenyl)-5-methoxy-pyrimidin-4-ylamino]-N-{2-[3-(4-methoxy-phenyl)-ureido]-ethyl}-nicotinamide] to `COc1cnc(-c2cc(Cl)ccc2F)nc1Nc1ccncc1C(=O)NCC(C)(C)N` [Compound 130, N-(2-Amino-2-methyl-propyl)-4-[2-(5-chloro-2-fluoro-phenyl)-5-methoxy-pyrimidin-4-ylamino]-nicotioamide], the IC50 falls from 350 nM to 38 nM (9.2-fold). The second is the more potent here.

Going from `CN(C)c1cnc(-c2cc(Cl)ccc2F)nc1Nc1ccncc1C(=O)NCCNCCO` [Compound 50] to `CN(C)c1cnc(-c2cc(Cl)ccc2F)nc1Nc1ccncc1C(=O)NCC(C)(C)O` [Compound 51], the IC50 rises from 20 nM to 120 nM (6-fold). The first is the more potent here.

First: CC(C)c1cnc(-c2cc(Cl)ccc2F)nc1Nc1ccncc1C(=O)N[C@H](C(N)=O)[C@@H](C)O [Compound 85, N-(1-Carbamoyl-2-hydroxy-propyl)-4-[2-(5-chloro-2-fluoro-phenyl)-5-isopropyl-pyrimidin-4-ylamino]-nicotinamide]
Second: CNC(=O)c1cnccc1Nc1nc(-c2cc(Cl)ccc2F)ncc1Br [Compound 93, 4-[5-Bromo-2-(5-chloro-2-fluoro-phenyl)-pyrimidin-4-ylamino]-N-methyl-nicotinamide]
The IC50 of the first is 130-fold higher: 3960 nM for the first, 30 nM for the second.

First: COc1cnc(-c2cc(Cl)ccc2F)nc1Nc1ccncc1C(=O)NCCCNC(=O)CC1O[C@H](CO)[C@@H](O)[C@H](O)[C@H]1O (some centres unmarked) [Compound 146]
Second: COc1cnc(-c2cc(Cl)ccc2F)nc1Nc1ccncc1C(=O)NCCCNC(=O)COC1O[C@H](CO)[C@@H](O)[C@H](O)[C@H]1O (stereo in doubt) [Compound 135, 4-[2-(5-Chloro-2-fluoro-phenyl)-5-methoxy-pyrimidin-4-ylamino]-N-{3[2-(3,4,5-trihydroxy-6-hydroxymethyl-tetrahydro-pyran-2-yloxy)-acetylamino]-propyl)-nicotinamide]
The IC50 of the first is 1.7-fold higher: 102 nM for the first, 60 nM for the second. The second is the more potent here.

First: O=C(NCCO)c1cnccc1Nc1nc(-c2cc(Cl)ccc2F)ncc1N1CCCC1 [Compound 24, 4-[2-(5-Chloro-2-fluoro-phenyl)-5-pyrrolidin-1-yl-pyrimidin-4-ylamino]-N-(2-hydroxy-ethyl)-nicotinamide]
Second: CC(C)NCCNC(=O)c1cnccc1Nc1nc(-c2cc(Cl)ccc2F)ncc1N1CCCC1 [Compound 23, 4-[2-(5-Chloro-2-fluoro-phenyl)-5-pyrrolidin-1-yl-pyrimidin-4-ylamino]-N-(2-isopropylamino-ethyl)-nicotinamide]
The IC50 of the first is 2.5-fold higher: 490 nM for the first, 200 nM for the second.

`CNC(=O)c1cnccc1Nc1nc(-c2cc(Cl)ccc2F)ncc1Cl` [Compound 119, 4-[5-Chloro-2-(5-chloro-2-fluoro-phenyl)-pyrimidin-4-ylamino]-N-methyl-nicotinamide] and `COc1cnc(-c2cc(Cl)ccc2F)nc1Nc1ccncc1C(=O)NCCCNCC(F)(F)C(F)(F)F` [Compound 101, 4-[2-(5-Chloro-2-fluoro-phenyl)-5-methoxy-pyrimidin-4-ylamino]-N-[3-(2,2,3,3,3-pentafluoro-propylamino)-propyl]-nicotinamide] are within 1.5-fold of each other in IC50: 155 nM for the first, 140 nM for the second.

Going from `COc1cnc(-c2cc(Cl)ccc2F)nc1Nc1ccncc1C(=O)NCCCN/C(=N/C#N)N1CCOCC1` [Compound 43] to `COc1cnc(-c2cc(Cl)ccc2F)nc1Nc1ccncc1C(=O)NCCCN(CCC1O[C@H](CO)[C@@H](O)[C@H](O)[C@@H]1O)C(C)C` (some centres unmarked) [Compound 153, 4-[2-(5-Chloro-2-fluoro-phenyl)-5-methoxy-pyrimidin-4-ylamino]-N-(3-{isopropyl-[2-(3,4,5-trihydroxy-6-hydroxymethyl-tetrahydro-pyran-2-yl)-ethyl]-amino}-propyl)-nicotinamide], the IC50 falls from 60 nM to 19 nM (3.2-fold).

Same assay, conditions: 10 uM ATP, 170 nM TGFβ R1, room temperature 20 minutes, read-out: IC50 for Kinase Inhibition

`CNC(=O)[C@H]1CCCN1CCCNC(=O)c1cnccc1Nc1nc(-c2cc(Cl)ccc2F)ncc1C(C)C` [Compound 182, 4-[2-(5-Chloro-2-fluoro-phenyl)-5-isopropyl-pyrimidin-4-ylamino]-N-[3-(2-methylcarbamoyl-pyrrolidin-1-yl)-propyl]-nicotinamide] and `CNC(=O)[C@@H]1CCCCN1CCCNC(=O)c1cnccc1Nc1nc(-c2cc(Cl)ccc2F)ncc1C(C)C` [Compound 184, 4-[2-(5-Chloro-2-fluoro-phenyl)-5-isopropyl-pyrimidin-4-ylamino]-N-[3-(2-methylcarbamoyl-piperidin-1-yl)-propyl}-nicotinamide] are within 1.5-fold of each other in IC50: 11 nM for the first, 12 nM for the second.

Going from `COc1cnc(-c2cc(Cl)ccc2F)nc1Nc1ccncc1C(=O)NCCNCC[C@H]1C[C@H](O)[C@@H](CO)O1` [Compound 173, 4-[2-(5-Chloro-2-fluoro-phenyl)-5-methoxy-pyrimidin-4-ylamino]-N-{2-[2-(4-hydroxy-5-hydroxymethyl-tetrahydro-furan-2-yl)-ethylamino]-ethyl}-nicotinamide] to `COC(=O)C1CCCN1CCCNC(=O)c1cnccc1Nc1nc(-c2cc(Cl)ccc2F)ncc1OC` (centres unmarked) [Compound 175, 1-[3-({4-[2-(5-Chloro-2-fluoro-phenyl)-5-methoxy-pyrimidin-4-ylamino]-pyridine-3-carbonyl}-amino)-propyl]-pyrrolidine-2-carboxylic acid methyl ester], the IC50 rises from 6 nM to 31 nM (5.2-fold). The first is the more potent here.

First: CC(C)c1cnc(-c2cc(Cl)ccc2F)nc1Nc1ccncc1C(=O)NCCCN1C[C@H](O)C[C@H]1C(=O)N1CCCC1 [Compound 191, 4-[2-(5-Chloro-2-fluoro-phenyl)-5-isopropyl-pyrimidin-4-ylamino]-N-{3-[4-hydroxy-2-(pyrrolidine-1-carbonyl)-pyrrolidin-1-yl]-propyl}-nicotinamide]
Second: CC(C)c1cnc(-c2cc(Cl)ccc2F)nc1Nc1ccncc1C(=O)NC[C@H](C)OC(=O)[C@H](C)N [Compound 204, 2-Amino-propionic acid 2-({4-[2-(5-chloro-2-fluoro-phenyl)-5-isopropyl-pyrimidin-4-ylamino]-pyridine-3-carbonyl}-amino)-1-methyl-ethyl ester]
The IC50 of the first is 1.9-fold lower: 13 nM for the first, 25 nM for the second. The first is the more potent here.
